These results are taken from patent US11832615B2 (priority 2013, dated 2023).

Like-named read-outs stand apart in the source and are kept apart here.

Assay [1] relates to Ralstonia solanacearum. It counts as in vivo. The following applies: tomato, 33 days after transplantation.
Assay [2] relates to Ralstonia solanacearum. The format is in vivo. The following applies: tomato, 17 days after transplantation, 10 mgAI/m^2.

Take `CCOP(=O)(SC(C)CC)SC(C)CC` (stereo not shown) [Cadusafos, cadusafos]: the “Controlling value (%)” value in the assay on Ralstonia solanacearum [1] (900 mgAI/m^2, with Paecilomyces fumosoroseus 3 × 10^9 CFU/m^2 (+)) amounted to 100%; with Ralstonia solanacearum [1] (900 mgAI/m^2, without Paecilomyces fumosoroseus (−)), 50%.
On to `O=S(=O)(CCC(F)=C(F)F)c1ncc(Cl)s1` [Fluensulfone, fluensulfone], for which the “Controlling value (%)” value was determined as 85% with Ralstonia solanacearum [1] (400 mgAI/m^2, with Paecilomyces fumosoroseus 3 × 10^9 CFU/m^2 (+)) and 0% in the assay with Ralstonia solanacearum [1] (400 mgAI/m^2, without Paecilomyces fumosoroseus (−)).
Take `O=C(NCCc1ncc(C(F)(F)F)cc1Cl)c1ccccc1C(F)(F)F` [Fluopyram, fluopyram]: the “Controlling value (%)” value with Ralstonia solanacearum [1] (10 mgAI/m^2, with Paecilomyces fumosoroseus 3 × 10^9 CFU/m^2 (+)) worked out at 62%; in the assay with Ralstonia solanacearum [1] (10 mgAI/m^2, without Paecilomyces fumosoroseus (−)) it was 0%.
As to `CCOP(=O)(SC(C)CC)N1CCSC1=O` (stereo not shown) [Fosthiazate, fosthiazate], the “Controlling value (%)” value in the assay with Ralstonia solanacearum [1] (300 mgAI/m^2, with Paecilomyces fumosoroseus 3 × 10^9 CFU/m^2 (+)) is 85%; in the assay with Ralstonia solanacearum [1] (300 mgAI/m^2, without Paecilomyces fumosoroseus (−)), 0%.
For the molecule `COP(=S)(OC)Oc1ccc([N+](=O)[O-])c(C)c1` [MEP, MEP (fenitrothion)], the “Controlling value (%)” value in the assay with Ralstonia solanacearum [2] (with Paecilomyces fumosoroseus 3 × 10^9 CFU/m^2 (+)) was 75%; with Ralstonia solanacearum [2] (without Paecilomyces fumosoroseus (−)), 0%.
